Reference: patent US20060257493A1, “Nanoparticulate delivery systems for treating multi-drug resistance” (priority 2005, published 2006)
Values joined by “and” are separate entries in the source; they are usually repeats but may differ in a detail not shown here. Equal entries are not always repeated.

What was measured:
[1] = system: SKOV3TR cells (multi-drug resistant, PTX-selected subculture of SKOV3); test: cells; type: cell-based, human
Description: (§1) In in-vitro cytotoxicity studies, the wildtype (drug sensitive (DS)) human ovarian cancer cell line SKOV3 was maintained in culture alongside an SKOV3TR subculture that was selected for multi-drug resistance in the presence of increasing concentrations of PTX. For cytotoxicity studies, 96-well plates were prepared with each cell type seeded at 5000 cells/well. The DS and MDR cells were subjected to dose-response studies against PTX, CER and PTX combined with CER, delivered as free drugs in solution or delivered in PEO-PCL nanoparticles. All studies were performed alongside a negative control (cell growth medium), a positive control (polyethyleneimine, PEI), and proper vehicle controls. Since PTX is a cell-cycle dependant chemotherapeutic, all treatments were left to proceed undisturbed for 6 days, allowing ample time for all cells to enter mitosis. Resulting cell death/viability was measured by the MTS (formazan) assay.

[2] = system: SKOV3 cells (wildtype, drug sensitive human ovarian cancer cell line); test: In-vitro cytotoxicity, MTS (formazan) assay, 6-day treatment; type: cell-based; conditions: 6 days
Description: as §1

CCCCCCCCCCCCC/C=C/[C@@H](O)[C@H](CO)NC(=O)CCCCC [CER, C6-ceramide]
percent cell viability ([1]; CER alone 20 μM in solution, 6 days): 91.18±7.61% and 91.2±7.6% | percent cell viability ([2]; SKOV3, CER alone 10 μM in solution, p<0.05): 75.08±7.86%

CC(=O)O[C@H]1C(=O)[C@@]2(C)[C@H]([C@H](OC(=O)c3ccccc3)[C@]3(O)C[C@H](OC(=O)[C@H](O)[C@@H](NC(=O)c4ccccc4)c4ccccc4)C(C)=C1C3(C)C)[C@]1(OC(C)=O)CO[C@@H]1C[C@@H]2O [PTX, Paclitaxel]
percent of MDR cells survived ([1]; 10 nM PTX): 100% | percent cell viability ([1]; 1 μM PTX in solution, 6 days): 65.6±2.2% | viability at 0.1 µM ([1]; Homo sapiens, 144 h, 100 nM PTX in solution, 6 days, read-out: percent cell viability): 100 ± 5.78% | viability at 1 µM ([1]; Homo sapiens, 144 h, 1 μM PTX in solution, 6 days, read-out: percent cell viability): 65.7 ± 2.16% | viability at 0.001 µM ([2]; Homo sapiens, SK-OV-3, 144 h, SKOV3, 1 nM PTX in solution, read-out: percent cell viability (cells survived)): 76 ± 5.92% | viability at 0.1 µM ([2]; Homo sapiens, SK-OV-3, 144 h, SKOV3, 100 nM PTX in solution, read-out: percent cell viability (cells survived)): 16.4 ± 0.41% | IC50 ([2]; Homo sapiens, SK-OV-3, 144 h, SKOV3, free drug in solution, read-out: IC50 of drug sensitive (SKOV3) cells to PTX in solution): ~5 nM
